{"source": "patent US10316039B2", "about": "“P2X3 and/or P2X2/3 compounds and methods” (Asana Biosciences, LLC, priority 2013, dated 2019)", "format_in_all_cases": "in vivo", "key": {"[1]": {"test_system": "thermal hyperalgesia induced by intraplantar Complete Freund's Adjuvant", "experiment": "CFA-induced inflammatory thermal hyperalgesia (Hargreaves test)", "conditions": "rat, 60 mg/kg, dosed 48 h after footpad CFA", "protocol": "FIG. 2 illustrates the antihyperalgesic effects of the compound of example 22 in a rat model of inflammatory thermal hyperalgesia induced by an intraplantar injection of Complete Freund's Adjuvant (CFA). Thermal hyperalgesia is manifest as a reduction in the time for foot-withdrawal during irradiation with a painful thermal stimulus. The compound of example 22 was administered at a dose of 60 mg/kg, 48 h after footpad injection of CFA and produced a substantial reversal (77% and 68%) of thermal hyperalgesia when assessed at 1 h and 2 h post-dose, respectively.\nFIG. 5 illustrates the antihyperalgesic effects of the compound of example 38 in a rat model of inflammatory thermal hyperalgesia induced by an intraplantar injection of CFA. Thermal hyperalgesia is manifest as a reduction in the time for foot-withdrawal during irradiation with a painful thermal stimulus. The compound of example 38 was administered at a dose of 60 mg/kg, 48 h after footpad injection of CFA and produced a substantial reversal (50%) of thermal hyperalgesia when assessed at 1 h post-dose.\nFIG. 6 illustrates the antihyperalgesic effects of the compound of example 52 in a rat model of inflammatory thermal hyperalgesia induced by an intraplantar injection of CFA. Thermal hyperalgesia is manifest as a reduction in the time for foot-withdrawal during irradiation with a painful thermal stimulus. The compound of example 52 was administered at a dose of 60 mg/kg, 48 h after footpad injection of CFA and produced a substantial reversal (39%) of thermal hyperalgesia when assessed at 1 h post-dose.\nMale Sprague Dawley rats of young adult age group and body weight range of 180-200 g were included in the study. Animals were housed under a 12 h light/dark cycle with food and water ad libitum. The animals underwent acclimatization with the observation chambers of the Hargreaves' apparatus for two days, twice daily for 45-60 min each time prior to initiation of study. Animals were also habituated to the apparatus for 15-30 min before each testing. Thermal hyperalgesia was assessed using the rat plantar test (Ugo Basile, Italy) following a modified method of Hargreaves (1988, “A new and sensitive method for measuring thermal nociception in cutaneous hyperalgesia”, Pain 32: 77-88). […]\nFollowing basal readout of PWL values to the thermal stimulus (PWL measurements described previously), 50 μL of complete Freund's Adjuvant (CFA—1 mg/mL suspension—Sigma, USA, Cat # F5881) was injected subcutaneously into the plantar surface of the right hind (ipsilateral) paw of animals under light isoflurane anesthesia. […]\nNext day (day 1) after 20-22 h of CFA injection, PWL of animals were recorded. Mean of three readings are taken as PWL recording of ipsilateral paw of each animal for pre and post CFA basal readout. […]"}, "[2]": {"test_system": "formalin-induced hind limb flinching", "experiment": "Formalin induced pain (Automated Nociception Analyzer test)", "conditions": "rat, 100 mg/kg oral gavage, 30 min before footpad formalin", "protocol": "FIG. 3 illustrates the antinociceptive effects of the compound of example 22 in a rat model of ongoing spontaneous pain. The compound of example 22 was administered by oral gavage at a dose of 100 mg/kg followed 30 min later by a footpad injection of a dilute formalin solution. Formalin elicits a typical biphasic nociceptive response that manifests as spontaneous hind limb flinches which are counted and binned over 5 min epochs. […] Male Sprague Dawley rats of young adult age group and body weight range of 200-250 g were included in the study. Animals were housed under a 12 h light/dark cycle with food and water ad libitum. Animals were acclimatized in the observation chambers of Automated Nociception Analyzer (ANA) for 45-60 min, twice daily for two days prior to the study day. On the day of the study, metal bands were glued to the plantar surface of the right hind paw of each animal enrolled in the study set and kept in plastic observation chambers for 10-15 min. […] […] count data for each animal was recorded from 1 to 60 min post formalin injection, using ANA motion analysis software. The study was analyzed in 2 phases, the early phase extended from 0-10 min and second phase extended from 11-60 min post formalin injection. […]"}, "[3]": {"test_system": "acetic acid-induced writhing (visceral pain)", "experiment": "Acetic acid induced writhing test", "conditions": "mouse, 20, 40 and 60 mg/kg oral gavage, 30 min before i.p. acetic acid, counted 15 min", "protocol": "FIG. 4 illustrates the antinociceptive effects of the compound of example 22 in a mouse model of visceral pain. The compound of example 22 was administered by oral gavage at 3 dose levels (20, 40 and 60 mg/kg) 30 min prior to an intraperitoneal injection of a dilute acetic acid solution. When injected into the abdominal cavity, acetic acid induces a distinctive stretching response in the abdomen and at least one hind limb that is assumed to reflect a response to visceral pain. […] Statistical significance is indicated with respect to the vehicle control group and was performed using a one-way ANOVA followed by Dunnett's multiple comparison test. Swiss albino mice of 30-40 g were included in the study. The mice were given an intraperitoneal injection of 0.7% v/v acetic acid solution at an injection volume of 10 mL/kg, 30 min after oral administration of vehicle or test article control. Test articles were administered, typically, at doses between 20 and 60 mg/kg. The mice were placed individually into glass chambers. The number of writhes produced in these animals was counted for 15 min following acetic acid administration. For scoring purposes writhing was indicated by stretching of the abdomen with simultaneous stretching of at least one hind limb. See, e.g., FIG. 4. Statistical analysis was done with One way ANOVA followed by Dunnett's multiple comparison tests. […]"}}, "data": [{"smiles": "CCc1cnnn1-c1cc(C(=O)NCc2ccc(C)nc2)cn2c(-c3ccc(C)s3)cnc12", "note": "[Example 22]", "values": [{"measurement": "reversal of thermal hyperalgesia", "setting": "[1]; assessed 1 h post-dose", "result": 77, "unit": "%"}, {"measurement": "reversal of thermal hyperalgesia", "setting": "[1]; assessed 2 h post-dose", "result": 68, "unit": "%"}, {"measurement": "second phase flinching response to formalin", "setting": "[2]", "result": "attenuated the second phase flinching response to formalin"}, {"measurement": "pain responses (writhes) after acetic acid", "setting": "[3]", "result": "clear dose-related reduction in the pain responses"}]}, {"smiles": "C[C@H](NC(=O)c1cc(-n2nncc2C(F)F)c2ncc(-c3ccc(Cl)s3)n2c1)c1nnc[nH]1", "note": "[Example 38]", "values": [{"measurement": "reversal of thermal hyperalgesia", "setting": "[1]; assessed 1 h post-dose", "result": 50, "unit": "%"}]}, {"smiles": "CC[C@H](NC(=O)c1cc(-n2nncc2C(F)F)c2ncc(-c3ccc(C)s3)n2c1)c1nnc[nH]1", "note": "[Example 52]", "values": [{"measurement": "reversal of thermal hyperalgesia", "setting": "[1]; assessed 1 h post-dose", "result": 39, "unit": "%"}]}]}
